Results reported in patent publication US11326992B2 (priority 2016, dated 2022).

Columns and labels:
[1] = Short term on-card stability; conditions: day 28, stored in the presence of air (RT+Air and −20° C.+Air)
[2] = morphine value marked (base); cited from earlier work
[3] = Blood:Plasma binding ratio of guanfacine test sample; type: in vitro ADME; conditions: whole blood sample; read-out: Blood:Plasma binding ratio (Ke/p)
Protocol: The multilayer device of the invention was tested using a known hypertension and ADHD drug, guanfacine, with its [^13C, ^15N3] internal standard, Guanfacine (C9H9Cl2N3O) has a monoisotopic mass of 245.0123 Da, while the internal standard [^13C, ^15N3]-guanfacine (^13CC8H9Cl2^15N3O) has a monoisotopic mass of 249.0067 Da. These compounds were tested using a whole blood sample with a Blood:Plasma binding ratio (Ke/p) of 1.5 and analyzed using LC-MS/MS bioanalysis following the protocol described here.

[4] = High QC 900 ng/mL, ANOVA p<0.0001

Compound	on-card stability [1, 4]	on-card stability ([1]; LLOQ 5 ng/mL, ANOVA)	pKa [2]	blood plasma ratio [3]
COc1ccc2c3c1O[C@H]1C(=O)CC[C@@]4(O)[C@@H](C2)N(C)CC[C@]314 [Oxycodone]	significant decompositions	significant decomposition	–	–
CNC(C)Cc1ccc2c(c1)OCO2 (centres unmarked) [MDMA, 3,4-methylenedioxymethamphetamine]	–	–	9.9	–
CNC(C)C(=O)c1ccc(C)cc1 (centres unmarked) [Mephedrone]	significant decompositions	significant decomposition	9.0	–
COc1ccc2c3c1O[C@H]1C(=O)CC[C@H]4[C@@H](C2)N(C)CC[C@]314 [Hydrocodone]	significant decompositions	significant decomposition	–	–
CNC(C)Cc1ccccc1 (centres unmarked) [Methamphetamine]	–	–	9.9	–
N=C(N)NC(=O)Cc1c(Cl)cccc1Cl [guanfacine]	–	–	–	1.5
CC(C)(N)Cc1ccccc1 [Phentermine]	–	–	10.1	–
